Read-outs that look alike come from different tables or passages of the source.
How the values were obtained:
Assay type in all cases: cell-based
[1] = tested on: S. cerevisiae; test: Mitochondrial activity by MitoTracker Red fluorescence
Procedure: It was next sought to assess the mitochondrial activity of AF-treated fungal cells. Yhe MitoTracker Red dye, which enters the mitochondrial matrix by utilizing the proton motive force and thus labels metabolically active mitochondria in viable cells was used (Arita et al., 2006; Tomas et al., 2011). Exponential phase S. cerevisiae were incubated in glucose-free synthetic complete (SC) media for 30 min and then switched to SC containing 2% glucose or non-fermentable acetate for 1.5 hours.
(§1) Overnight yeast cultures were diluted into the indicated media and grown to an OD600 of 0.2, at which point the AFs were added. Colony forming units (CFU) were measured by plating six serial dilutions onto YPD agar plates. Cells treated with MCZ were washed before serial dilution to stop growth inhibition associated with high concentrations of MCZ. CFU were counted after three days of incubation on agar plates. When indicated, thiourea (Fluka) was added 30 min prior to the addition of AFs. HPF (10 μM) (Invitrogen) and Mito Tracker (1 μM) (Invitrogen) dyes were added to PBS-washed cells at the indicated time points and incubated for 30 min prior to flow cytometry measurements, which were taken on the FACSCalibur (Becton-Dickinson). All experiments described in this section were conducted in 0.5 ml of SDC in 24-well plates incubated at 900 rpm and 37° C. for C. albicans and 30° C. and 300 rpm for S. cerevisiae. TUNEL assays were conducted as previously described (Ribeiro et al., 2006) and are described in detail in the TUNEL section of the Experimental Procedures.

[2] = tested on: C. albicans wildtype and DNA repair mutants; test: Fungicidal killing, CFU assay; details: C. albicans rad50/rad50 and rad52/rad52, 3 hours of drug exposure
Procedure: Overnight yeast cultures were diluted into the indicated media and grown to an OD600 of 0.2, at which point the AFs were added. Colony forming units (CFU) were measured by plating six serial dilutions onto YPD agar plates.
as §1

[3] = tested on: S. cerevisiae wildtype and deletion strains

Row | Structure (SMILES) | MitoTracker fluorescence in acetate-incubated vs glucose-incubated cells ([1]; S. cerevisiae, SC with non-fermentable acetate, 1.5 hours) | susceptibility of DSBR mutants compared to wildtype [2] | additive resistance on deleting the remaining citrate synthases in the cit3 background ([3]; S. cerevisiae CIT1/CIT2 deletions in cit3 background) | CFU (24-well colony forming assay), AF susceptibility vs wildtype ([3]; S. cerevisiae PAB103, SDH2 deletion) | CFU (24-well colony forming assay), AF susceptibility vs wildtype ([3]; S. cerevisiae PAB106, FMS1 deletion) | CFU (24-well colony forming assay), AF susceptibility vs wildtype ([3]; S. cerevisiae PAB107, NDE1 deletion) | CFU (24-well colony forming assay), AF susceptibility vs wildtype ([3]; S. cerevisiae PAB112, MNE1 deletion) | CFU (24-well colony forming assay), AF susceptibility vs wildtype ([3]; S. cerevisiae PAB113, FUM1 deletion) | CFU (24-well colony forming assay), AF susceptibility vs wildtype ([3]; S. cerevisiae PAB114, TPK2 deletion) | CFU (24-well colony forming assay), AF susceptibility vs wildtype ([3]; S. cerevisiae PAB119, CIT2 deletion) | CFU (24-well colony forming assay), AF susceptibility vs wildtype ([3]; S. cerevisiae PAB121, SDH1 deletion) | CFU (24-well colony forming assay), AF susceptibility vs wildtype ([3]; S. cerevisiae PAB122, TPK3 deletion) | CFU (24-well colony forming assay), AF susceptibility vs wildtype ([3]; S. cerevisiae PAB124, TPK1 deletion) | CFU (24-well colony forming assay), AF susceptibility vs wildtype ([3]; S. cerevisiae PAB132, CIT3 deletion) | CFU (24-well colony forming assay), AF susceptibility vs wildtype ([3]; S. cerevisiae PAB135, NDI1 deletion) | CFU (24-well colony forming assay), AF susceptibility vs wildtype ([3]; S. cerevisiae PAB145, CIT1 deletion) | CFU (24-well colony forming assay), AF susceptibility vs wildtype ([3]; S. cerevisiae PAB168, RAS1 deletion) | CFU (24-well colony forming assay), AF susceptibility vs wildtype ([3]; S. cerevisiae PAB171, RAS2 deletion) | reduction of killing at 3 hours by thiourea ([3]; S. cerevisiae, 50 mM thiourea for 30 minutes prior to the addition of AF drugs) [fold] | increase of MitoTracker fluorescence ([1]; drug added to glucose-incubated (SC, 2% glucose) S. cerevisiae) [fold]
1 | CC(=O)O [acetate] | approximately 5 fold |  |  |  |  |  |  |  |  |  |  |  |  |  |  |  |  |  |  | 
2 | Cc1cc(C2CCCCC2)n(O)c(=O)c1 [CIC, cicloplrox olamine] |  | particularly susceptible | not observed | Resistant (″Resistant″ or ″Sensitive″ indicate at least a 5-fold CFU difference from wildtype at the final time point) | Normal | Resistant (″Resistant″ or ″Sensitive″ indicate at least a 5-fold CFU difference from wildtype at the final time point) | Resistant (″Resistant″ or ″Sensitive″ indicate at least a 5-fold CFU difference from wildtype at the final time point) | Resistant (″Resistant″ or ″Sensitive″ indicate at least a 5-fold CFU difference from wildtype at the final time point) | Normal | Resistant (″Resistant″ or ″Sensitive″ indicate at least a 5-fold CFU difference from wildtype at the final time point) | Resistant (″Resistant″ or ″Sensitive″ indicate at least a 5-fold CFU difference from wildtype at the final time point) | Resistant (″Resistant″ or ″Sensitive″ indicate at least a 5-fold CFU difference from wildtype at the final time point) | Resistant (″Resistant″ or ″Sensitive″ indicate at least a 5-fold CFU difference from wildtype at the final time point) | Resistant (″Resistant″ or ″Sensitive″ indicate at least a 5-fold CFU difference from wildtype at the final time point) | Resistant (″Resistant″ or ″Sensitive″ indicate at least a 5-fold CFU difference from wildtype at the final time point) | Resistant (″Resistant″ or ″Sensitive″ indicate at least a 5-fold CFU difference from wildtype at the final time point) | Resistant (″Resistant″ or ″Sensitive″ indicate at least a 5-fold CFU difference from wildtype at the final time point) | Resistant (″Resistant″ or ″Sensitive″ indicate at least a 5-fold CFU difference from wildtype at the final time point) | ~15 | 10

From patent US20150366890A1, “COMPOSITIONS AND METHODS FOR TREATING FUNGAL INFECTIONS” (TRUSTEES OF BOSTON UNIVERSITY, priority 2013, published 2015)
